Where two headings read alike, the source gives them in different places.
How the values were obtained:
[1] = test system: BP-induced DNA adducts (rat liver microsomes, st-DNA); experiment: Microsomal BP-DNA adducts, 32P-postlabeling; assay type: biochemical; settings: for BP-induced DNA adducts: BP 1 μM, rat liver microsomes, st-DNA
Protocol: st-DNA (300 μg/mL) was preincubated with 50 mM Tris-HCl (pH 7.5), 1 mM MgCl2, 2.5 mM glucose-6-phosphate, 1 U/mL G6PDH, 0.5 mM NADP+, and α-naphthoflavone-induced rat liver microsomal proteins (1 mg/mL) in 1 mL for 10 min, in the presence of vehicle alone and PC and EA at 20 and 40 μM. […] The incubation was continued for another 30 min at 37°C and then reaction was terminated by the addition of EDTA and centrifugation (9,000 g; 10 min). DNA was isolated from the supernatant by removal of RNA and proteins by digestions with RNases A and T1 and proteinase K and a series of extractions with phenol, phenol: Sevag (chloroform : isoamyl alcohol, 24 : 1), and Sevag, followed by precipitation of the DNA with ethanol. The DNA concentration was estimated spectrophotometrically.
DNA adducts were analyzed by ^32P-postlabeling as described earlier. Briefly, 10 μg of DNA was digested with micrococcal nuclease and spleen phosphodiesterase (MN/SPD). Before further treatment with nuclease P1 to enrich DNA adducts, an aliquot was removed for evaluation of normal nucleotide levels. DNA adducts and normal nucleotides were labelled with [γ-^32P]ATP and T4 polynucleotide kinase. Labelled adducts were separated by multidirectional polyethyleneimine (PEI)-cellulose TLC using the following solvents: D1, 1.0 M sodium phosphate, pH 6.0; D3, 4 M lithium formate/7 M urea, pH 3.5; D4, 4 M ammonium hydroxide/isopropanol (1 : 0.9); and D5, 1.7 M sodium phosphate, pH 6.0. Normal nucleotides were resolved in 180 mM sodium phosphate, pH 6.0, by one-directional PEI-cellulose TLC. DNA adducts and normal nucleotides were detected and quantified by Packard InstantImager.

[2] = test system: Salmonella typhimurium TA97a; settings: 250 µM;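 further: compound and mutagen preincubated together 30 min at 37 °C before adding bacteria, then plated on minimal glucose agar for 48 h and His+ revertant colonies counted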
Protocol: (§1) In the preincubation experiment, test compounds and mutagen, each having a volume of 0.1 mL of varying concentrations, were preincubated at 37°C for 30 min and then 0.1 mL of 1 × 10^7 CFU/mL density of the bacterial culture was added, followed by the addition of 2.5 mL of top agar at 45°C (containing 0.5% NaCl and 0.6% agar) supplemented with 0.5 mM histidine-biotin. […] The combined solutions were vortexed and poured onto minimal glucose plates (40% glucose solution and Vogel Bonner medium). The plates were incubated at 37°C for 48 h and the numbers of histidine-independent revertants colonies were scored.
(§2) Survival of the bacteria was routinely monitored for each experiment. Parallel controls were run with compounds alone at all concentrations to test the possible toxicity. The concentrations of the test samples for investigating the antimutagenicity were 50, 100, 200, and 500 μM. […] All the test samples and mutagens were dissolved in DMSO (final conc., 0.01%). […] Plates were set up in triplicate for each concentration and the entire experiment was repeated three times. Inhibition of mutagenicity was expressed as percentage decrease of reverse mutation and calculated as (1) Percent inhibition=[(a−b)/(a−c)]×100, where a = number of histidine revertants induced by mutagen, b = number of histidine revertants induced by mutagen in the presence of test compound, and c = number of revertants induced in negative control.

[3] = test system: Salmonella typhimurium TA98; settings: 250 µM;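 further: test compound and mutagen preincubated 30 min at 37°C before adding bacteria, then His+ revertant colonies counted after 48 h plating, inhibition relative to mutagen-only versus negative-control revertants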
[4] = test system: Salmonella typhimurium TA100; settings: 250 µM;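 further: compound and mutagen preincubated together 30 min at 37°C before bacteria added, then plates incubated 48 h at 37°C, inhibition relative to mutagen-alone revertants after subtracting the negative control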
Protocol: as §1, §2

[5] = test system: Salmonella typhimurium TA102; settings: 250 µM;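 further: compound and mutagen preincubated 30 min at 37 °C before adding bacteria, His+ revertant colonies counted after 48 h at 37 °C, inhibition relative to mutagen-alone minus negative-control revertants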
Protocol: as §1, §2

[6] = test system: Salmonella typhimurium strains TA97a, TA98, TA100, and TA102
Protocol: as §1, §2

[7] = test system: Salmonella typhimurium TA102; experiment: Ames antimutagenicity assay (preincubation); settings: for inhibition at 50 µM / inhibition at 100 µM / inhibition at 250 µM / inhibition at 500 µM: Salmonella enterica, TYPHIMURIUM;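 on all read-outs here: compound and mutagen preincubated 30 min at 37 °C before adding bacteria, His+ revertant colonies counted after 48 h at 37 °C, inhibition relative to mutagen-alone minus negative-control revertants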
Protocol: as §1, §2

In the case of `O=c1oc2c(O)c(O)cc3c(=O)oc4c(O)c(O)cc1c4c23` [Ellagic acid, ellagic acid], the “BP-induced DNA adducts” value ([1]; 20 μM test compound) is reported as 58.6 ± 2.8 DNA adducts/10^8 nucleotides, the “BP-induced DNA adducts” value ([1]; 40 μM test compound) is reported as 50.9 ± 8.1 DNA adducts/10^8 nucleotides and the “inhibition of BP-induced DNA adducts” value ([1]; 40 μM, BP with rat liver microsomes, cofactors, DNA) is reported as 77%. It also gave an inhibition [2] of 44.9%, an inhibition [3] of 56.3% and an inhibition [4] of 67.7%. The inhibition [5] was 74.1%, the mutagenic activity [6] was “No mutagenic activity” and the inhibition at 50 µM ([7]; read-out: % inhibition of mutagenicity, TA 102, 50 μM + 2AF, S9) was 17.5%. It also gave an inhibition at 50 µM ([7]; read-out: % inhibition of mutagenicity, TA 102, 50 μM + BP, S9) of 11.5%, an inhibition at 50 µM ([7]; read-out: % inhibition of mutagenicity, TA 102, 50 μM + MMS, no S9) of 18.5% and an inhibition at 50 µM ([7]; read-out: % inhibition of mutagenicity, TA 102, 50 μM + NaN3, no S9) of 21.9%. It also gave an inhibition at 100 µM ([7]; read-out: % inhibition of mutagenicity, TA 102, 100 μM + 2AF, S9) of 45.9%, an inhibition at 100 µM ([7]; read-out: % inhibition of mutagenicity, TA 102, 100 μM + BP, S9) of 23.6% and an inhibition at 100 µM ([7]; read-out: % inhibition of mutagenicity, TA 102, 100 μM + MMS, no S9) of 30.3%. The inhibition at 100 µM ([7]; read-out: % inhibition of mutagenicity, TA 102, 100 μM + NaN3, no S9) was 40.3%, the inhibition at 250 µM ([7]; read-out: % inhibition of mutagenicity, TA 102, 250 μM + BP, S9) was 46.6% and the inhibition at 250 µM ([7]; read-out: % inhibition of mutagenicity, TA 102, 250 μM + MMS, no S9) was 44.3%. It also gave an inhibition at 250 µM ([7]; read-out: % inhibition of mutagenicity, TA 102, 250 μM + NaN3, no S9) of 50.7%, an inhibition at 500 µM ([7]; read-out: % inhibition of mutagenicity, TA 102, 500 μM + 2AF, S9) of 89% and an inhibition at 500 µM ([7]; read-out: % inhibition of mutagenicity, TA 102, 500 μM + BP, S9) of 83.7%. For the same compound, the inhibition at 500 µM ([7]; read-out: % inhibition of mutagenicity, TA 102, 500 μM + MMS, no S9) was 72.4%, the inhibition at 500 µM ([7]; read-out: % inhibition of mutagenicity, TA 102, 500 μM + NaN3, no S9) was 62.3% and the “Number of His+ revertants colonies/plate” value ([7]; TA 102, 50 μM + 2AF, S9) was 1276.0 ± 38.0 colonies/plate. For the same compound, the “Number of His+ revertants colonies/plate” value ([7]; TA 102, 50 μM + BP, S9) was 653.0 ± 34.7 colonies/plate, the “Number of His+ revertants colonies/plate” value ([7]; TA 102, 50 μM + MMS, no S9) was 1071.0 ± 16.7 colonies/plate and the “Number of His+ revertants colonies/plate” value ([7]; TA 102, 50 μM + NaN3, no S9) was 345.3 ± 26.7 colonies/plate. The “Number of His+ revertants colonies/plate” value ([7]; TA 102, 100 μM + 2AF, S9) was 924.0 ± 25.3 colonies/plate, the “Number of His+ revertants colonies/plate” value ([7]; TA 102, 100 μM + BP, S9) was 595.0 ± 24.1 colonies/plate and the “Number of His+ revertants colonies/plate” value ([7]; TA 102, 100 μM + MMS, no S9) was 956.0 ± 19.6 colonies/plate. The “Number of His+ revertants colonies/plate” value ([7]; TA 102, 100 μM + NaN3, no S9) was 328.0 ± 28.2 colonies/plate, the “Number of His+ revertants colonies/plate” value ([7]; TA 102, 250 μM + BP, S9) was 514.0 ± 21.4 colonies/plate and the “Number of His+ revertants colonies/plate” value ([7]; TA 102, 250 μM + MMS, no S9) was 810.0 ± 19.1 colonies/plate. For the same compound, the “Number of His+ revertants colonies/plate” value ([7]; TA 102, 250 μM + NaN3, no S9) was 308.0 ± 23.6 colonies/plate, the “Number of His+ revertants colonies/plate” value ([7]; TA 102, 500 μM + 2AF, S9) was 431.0 ± 13.6 colonies/plate and the “Number of His+ revertants colonies/plate” value ([7]; TA 102, 500 μM + BP, S9) was 366.0 ± 25.0 colonies/plate. For the same compound, the “Number of His+ revertants colonies/plate” value ([7]; TA 102, 500 μM + MMS, no S9) was 506.0 ± 13.5 colonies/plate and the “Number of His+ revertants colonies/plate” value ([7]; TA 102, 500 μM + NaN3, no S9) was 288.3 ± 19.2 colonies/plate.

— publication PMC4052943 (BioMed Research International, 2014)
